Measurements: patent US20030039580A1, “Stable preservative formulations comprising halopropynyl compounds and butoxydiglycol solvent” (Lonza Inc., priority 2001, published 2003)

How the values were obtained:
[1] = tested on: mixed fungi, comprising A. niger (ATCC 16404) and C. albicans (ATCC 10231); assay: Inhibition of mixed fungi by propynyl compound solutions in protein shampoo (Example 2); assay type: cell-based; conditions: Table 3, 500 ppm in protein shampoo (GPL 1000 ppm), solvent butoxydiglycol (A, E) or butylene glycol (B, C, D)
Procedure: (§1) Each of the samples A to E is a protein shampoo comprising a propynyl compound. The samples were tested for antibacterial and antifungal properties by testing for inhibition of a mixed bacteria, comprising E. coli (ATCC 8739), P. aeruginosa (ATCC 9027), and S. aureus (ATCC 6538), and inhibition of a mixed fungi, comprising A. niger (ATCC 16404) and C. albicans (ATCC 10231).
(§2) The samples “GPL” and “NP” are controls. “GPL” is 0. 1% Glydantg Plus, a liquid antimicrobial preservative available from Lonza Inc., Fair Lawn, N.J., containing a dimethyol dimethyl hydantoin formaldehyde donor. Glydant® Plus is used in personal care formulations in cosmetics and personal care products.
(§3) In Table 3, samples A and E consist of an iodopropynyl compound in a butoxydiglycol solvent. Samples C and D consist of an iodopropynyl compound in a butylene glycol solvent, and Sample B consists of a propynyl compound in a butylene glycol solvent.

[2] = Solubility testing of propynyl compounds in solvents; assay type: physicochemical; conditions: for Solubility in Butanediol Anhydrous: solvent Butanediol Anhydrous; for Solubility in Butoxydiglycol: solvent Butoxydiglycol; for Solubility in Sorbitol: solvent Sorbitol
From the text: The compounds used in Example 1 are identified below in Table 1. The results of the solubility testing is shown below in Table 2.

[3] = tested on: mixed bacteria, comprising E. coli (ATCC 8739), P. aeruginosa (ATCC 9027), and S. aureus (ATCC 6538); assay: Inhibition of mixed bacteria by propynyl compound solutions in protein shampoo (Example 2); assay type: cell-based; conditions: Table 3, 500 ppm in protein shampoo (GPL 1000 ppm), solvent butoxydiglycol (A, E) or butylene glycol (B, C, D)
Procedure: as §1, §2, §3

Bacteria = assay: Antibacterial screening of propynyl compositions in protein shampoo formulations (Example 3); assay type: cell-based; conditions: Table 4, 500 ppm in protein shampoo pH 7.0 (GPL 1000 ppm), solvent butoxydiglycol (A, H) or butylene glycol (F, G)
From the text: (§4) Samples of a standard protein shampoo (pH-7.0) were formed. The shampoo contained the following preservative-free ingredients, w/w % Samples A, […] and H contained active preservative iodopropynyl agents in a solvent. Samples A and H contained butoxydiglycol as the solvent. Samples F and G (containing a propynyl compound rather than a halopropynyl compound) contained butylene glycol as the solvent.

Fungi = assay: Antifungal screening of propynyl compositions in protein shampoo formulations (Example 3); assay type: cell-based; conditions: Table 4, 500 ppm in protein shampoo pH 7.0 (GPL 1000 ppm), solvent butoxydiglycol (A, H) or butylene glycol (F, G)
From the text: as §4

Burkholderia cepacia = assay: Minimum inhibitory concentration, IPBC and butoxydiglycol in protein shampoo (Example 4); assay type: cell-based
Procedure: Sample protein shampoos I, J and K were formed. Sample I contained only IPBC. Sample J contained only butoxydiglycol. Sample K contained both IPBC and butoxydiglycol. […] Synergism for the IPBC/butoxydiglycol studies in Table 5 was calculated by the method described in C. E. Kull et al., “Mixtures of Quaternary Ammonium Compounds and Long-Chain Fatty Acids as Antifungal Agents”, Applied Microbiology, 4:538-541(1961). The Kull method determines the quantity of each component in a mixture which is required to reach a given microbiological endpoint (e.g., MIC), and compares that amount with the quantity of the pure component necessary to reach the same endpoint. According to this method, a synergism index or value QA/QB+Qa/Qb is determined, wherein: […]

SMILES	DAY 0 Fungi (cfu/ml) [1]	DAY 14 Fungi (cfu/ml) [1]	DAY 28 Fungi (cfu/ml) [1]	Solubility in Butanediol Anhydrous [2]	Solubility in Butoxydiglycol [2]	DAY 0 Bacteria (cfu/ml) [3]	DAY 14 Bacteria (cfu/ml) [3]	DAY 28 Bacteria (cfu/ml) [3]	DAY 0 Bacteria (cfu/ml) (Bacteria)	DAY 14 Bacteria (cfu/ml) (Bacteria)	DAY 28 Bacteria (cfu/ml) (Bacteria)	Solubility in Sorbitol [2]	DAY 0 Fungi (cfu/ml) (Fungi)	DAY 14 Fungi (cfu/ml) (Fungi)	DAY 28 Fungi (cfu/ml) (Fungi)	Concentration (ppm) QA (Burkholderia cepacia; Table 6, parameter MIC)	MIC, ppm active (Burkholderia cepacia; single active alone in protein shampoo, complete inhibition of growth)	MIC (Burkholderia cepacia; Burkholderia cepacia, single active alone in protein shampoo, complete inhibition of growth, read-out: MIC, ppm active)	Concentration (ppm) QB (Burkholderia cepacia; Table 6, parameter MIC)
O=C(C#CI)c1ccc(C(F)(F)F)cc1 [Compound L74, 3-iodo-1-(4-trifluoromethylphenyl)-2-propyn-1-one]	1.00 × 10^5 cfu/ml	<10 cfu/ml	>10^3 cfu/ml	+	+	8.00 × 10^6 cfu/ml	>3.0 × 10^3 cfu/ml	>10^3 cfu/ml											
C#CC(=O)c1ccc(C#N)cc1 [Compound L106, 1-(4-cyanophenyl)-2-propyn-1-one]				+	+				8.00 × 10^6 cfu/ml	>1.0 × 10^4 cfu/ml	<10 cfu/ml	−	1.00 × 10^5 cfu/ml	>1.0 × 10^3 cfu/ml	100 cfu/ml				
OC(C#CI)c1ccc(Cl)s1 (centres unmarked) [Compound L100]									8.00 × 10^6 cfu/ml	2.00 × 10^1 cfu/ml	200 cfu/ml		1.00 × 10^5 cfu/ml	<10 cfu/ml	<10 cfu/ml				
O=C(O)CCOCC#CI [Compound L111, Iodopropynyloxypropionic Acid]									8.00 × 10^6 cfu/ml	<10 cfu/ml	<10 cfu/ml		8.00 × 10^6 cfu/ml	<10 cfu/ml	<10 cfu/ml				
OC(C#CI)c1cccs1 (centres unmarked) [Compound L90, 2-(3-iodo-2-propyn-1-ol-yl) thiophene]	1.00 × 10^5 cfu/ml	<10 cfu/ml	>10^3 cfu/ml	+	+	7.00 × 10^6 cfu/ml	>3.0 × 10^3 cfu/ml	>10^3 cfu/ml				−							
Cc1ccc(C(Cn2ccnc2)OCC#CI)cc1 (centres unmarked) [Compound L103, 2-(1-imidazolyl)-1-(4-methylphenyl)ethyl iodopropargyl ether]	1.00 × 10^5 cfu/ml	500 cfu/ml	400 cfu/ml	−	+	7.00 × 10^6 cfu/ml	<10 cfu/ml	<10 cfu/ml				−							
CCCCNC(=O)OCC#CI [IPBC, 3-iodo-2-propynyl butyl carbamate]																1,250 ppm	1,250 ppm		
CCCCOCCOCCO [Butoxydiglycol, 2-(2-butoxyethoxy)ethanol]																		12.5 mg/mL	12,500 ppm
O=c1c(Cl)cn(CC#CI)c(=O)n1CC#CI [Compound L58, 1N,3N-Diiodopropyn-2-yl-5-chlorouracil]	1.00 × 10^5 cfu/ml	<10 cfu/ml	<10 cfu/ml	−	+	8.00 × 10^6 cfu/ml	<10 cfu/ml	<10 cfu/ml	9.00 × 10^6 cfu/ml	<10 cfu/ml	<10 cfu/ml		1.00 × 10^5 cfu/ml	<10 cfu/ml	<10 cfu/ml				
